Assay results taken from patent US20050089516A1, “Skin vitalizing composition for external use anti-aging preparation” (SHISEIDO COMPANY, LTD., priority 2002, published 2005).

How the values were obtained:
type VII collagen = experiment: Artificial skin culture, immunostaining with anti-type VII collagen antibody; type: cell-based, human; details: Example 1; culturing for 2 weeks; 10 μM compound A, 10 μg/ml aprotinin, 1 ng/ml interleukin-1β, 1 ng/ml TGF-α, 100 ng/ml PDGF; versus no-compound control
Method: (§1) Collagen gel was obtained by preparing 10 ml of a human dermal fibroblasts (0.3-1×10^5 cell/ml)-suspended collagen solution (using I-AC collagen manufactured by Koken Co., Ltd.) on ice, followed by gelling the collagen in a 60 mm Petri dish at 37° C. The gel was then peeled from the bottom of the dish, the collagen gel was placed on metal, and a glass ring (12 mm inner diameter) was placed over the gel. A 0.4 ml portion of a human foreskin-derived epidermal keratinocyte (1×10^6/ml) suspension (KGM-DMEM (1:1) mixed medium containing 5% fetal bovine serum) was poured into the glass ring while avoiding leakage. The keratinocytes were allowed to adhere in a CO2 incubator overnight, and the ring was removed on the following day. The medium was filled in up to the border of the epidermal layer, and culturing was continued while exposing the epidermal layer to the air, to prepare a multilayered skin model with epidermis having a horny layer. […]

[1] = test system: basement membrane structure directly under the epidermis; experiment: Transmission electron microscopy of artificial skin; type: cell-based, human; details: Example 1; 10 μM compound A, with or without 10 μg/ml aprotinin
Method: as §1

COc1ccc(S(=O)(=O)N(Cc2cccnc2)C(C(=O)NO)C(C)C)cc1.Cl (centres unmarked) [compound A]
staining of type VII collagen directly under the basal keratinocytes (type VII collagen): weak but definite staining | basement membrane structure by transmission electron microscope [1]: induced formation of the basement membrane
